“And” between values parts separate entries of the source, which are not always exact repeats. Equal values may be shown once.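 Assay format: 96-well plates, 48-hour exposure. The concentration for 50% growth inhibition is given as GI50. Definition used: TGI = concentration required for complete inhibition of growth.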

Among the test systems are K-562 leukemia; U251 CNS; OVCAR-4 ovarian; A498 renal; MCF7 breast; NCI-H23 lung; NCI/ADR-RES ovarian; MDA-MB-435; 786-0 renal; UACC-62 melanoma.
Holding throughout (assay): NCI tumour cell line growth inhibition, 48 h

For `CCCCCCCCCCCC(c1ccccc1)[N+](C)(C)C` (stereo not drawn), the GI50 with K-562 leukemia is 0.673 µM; in the test with U251 CNS, 1140 nM; in the test with OVCAR-4 ovarian, 1130 nM; in the test with A498 renal, 1990 nM; with MCF7 breast, 1440 nM; in the test on NCI-H23 lung, 1000 nM. Also, the GI50 was more than 100000 nM with NCI/ADR-RES ovarian, 1.35 µM in the test on MDA-MB-435 and 1630 nM with 786-0 renal. The TGI in the test on K-562 leukemia is 4.09 µM; in the test with U251 CNS, 2.49 µM; with OVCAR-4 ovarian, 4.05 µM; in the test on A498 renal, 7.24 µM; with MCF7 breast it was 3.19 µM; with NCI-H23 lung, 5.86 µM. The TGI with NCI/ADR-RES ovarian was more than 100 µM; in the test with MDA-MB-435, 3.05 µM; in the test on 786-0 renal, 3.55 µM.
`CC(C)(Sc1cc(C(C)(C)C)c(O)c(C(C)(C)C)c1)Sc1cc(C(C)(C)C)c(O)c(C(C)(C)C)c1`: the TGI in the test on K-562 leukemia is 3.35 µM; in the test with U251 CNS, more than 100 µM; in the test with OVCAR-4 ovarian, more than 100 µM; in the test with A498 renal it was more than 100 µM; in the test on MCF7 breast, more than 100 µM; in the test on UACC-62 melanoma it was more than 100 µM. Besides, the TGI with NCI-H23 lung, with NCI/ADR-RES ovarian, in the test on MDA-MB-435 and in the test on 786-0 renal was more than 100 µM each time.
With `O=C(O)CN(CCN(CC(=O)O)CC(=O)O)CCN(CC(=O)O)CC(=O)O`, the GI50 is 4140 nM with U251 CNS; 2510 nM with OVCAR-4 ovarian; 1860 nM in the test on A498 renal; 3750 nM in the test with MCF7 breast; 3350 nM with UACC-62 melanoma; 2450 nM with NCI-H23 lung. Also, the GI50 in the test with NCI/ADR-RES ovarian was 3100 nM; in the test with MDA-MB-435, 3.94 µM; with 786-0 renal it was 2540 nM. Further, the TGI in the test with U251 CNS came out at 21.2 µM; with OVCAR-4 ovarian, 7.51 µM; in the test with A498 renal, 15.1 µM; in the test on MCF7 breast, 22.1 µM; in the test with UACC-62 melanoma, 15.9 µM; in the test with NCI-H23 lung, 10.2 µM. Further, the TGI in the test on NCI/ADR-RES ovarian stood at 13.7 µM; in the test on MDA-MB-435 it was 21.8 µM; in the test on 786-0 renal it was 6.72 µM.
Consider `O=C(c1ccccc1)c1nc2ccc(Cl)cc2cc1C(Br)Br`, for which the TGI stood at 3.55 µM in the test on K-562 leukemia; 0.674 µM with U251 CNS; 1.41 µM in the test on OVCAR-4 ovarian; 9.45 µM in the test with A498 renal; 1.96 µM with MCF7 breast; 2.06 µM in the test on UACC-62 melanoma. Besides, the TGI amounted to 1.11 µM in the test on NCI-H23 lung, 0.505 µM in the test on NCI/ADR-RES ovarian, 1.14 µM in the test with MDA-MB-435 and 0.378 µM with 786-0 renal.
Turning to `CCCCCOC(=O)c1c(C)[nH]c(/C=C2\N=C(c3ccc[nH]3)C=C2OC)c1C`, the GI50 is 0.0421 µM in the test with K-562 leukemia; 21.9 nM in the test on U251 CNS; 55.9 nM in the test on OVCAR-4 ovarian; 124 nM in the test with A498 renal; 45.1 nM with MCF7 breast; 21.3 nM in the test on UACC-62 melanoma. In addition, the GI50 in the test on NCI-H23 lung is 57 nM; in the test on NCI/ADR-RES ovarian it was 39.1 nM; in the test on MDA-MB-435, 0.0348 µM; with 786-0 renal it was 46.8 nM. For the same compound, the TGI in the test with K-562 leukemia stood at 1.25 µM; with U251 CNS, 0.461 µM; with OVCAR-4 ovarian it was 2.39 µM; in the test on A498 renal, 1.02 µM; in the test with MCF7 breast, 1.14 µM; in the test with UACC-62 melanoma it was 0.0491 µM. Besides, the TGI in the test on NCI-H23 lung was 1.47 µM; in the test on NCI/ADR-RES ovarian, 1.33 µM; with MDA-MB-435, 0.734 µM; in the test on 786-0 renal, 0.397 µM.
As for `COc1ccc(CC(C)NCC(O)c2ccc(O)c(NC=O)c2)cc1` (stereo not drawn), the TGI with K-562 leukemia, in the test with U251 CNS, in the test with OVCAR-4 ovarian, in the test with A498 renal, with MCF7 breast and in the test on UACC-62 melanoma was more than 100 µM each time. Further, the TGI in the test with NCI-H23 lung, in the test on NCI/ADR-RES ovarian, in the test on MDA-MB-435 and in the test on 786-0 renal was more than 100 µM throughout.
Consider `COc1ccc2c(c1[N+](=O)[O-])CC[C@@H]1[C@@H]2CC[C@]2(C)C(=O)CC[C@@H]12`, for which the GI50 in the test with K-562 leukemia was more than 1000 µM; with U251 CNS, 476000 nM; in the test with OVCAR-4 ovarian it was 228000 nM; in the test on A498 renal, 352000 nM; with MCF7 breast, 998000 nM; in the test on UACC-62 melanoma, 387000 nM. Further, the GI50 in the test on NCI-H23 lung is 679000 nM; in the test with NCI/ADR-RES ovarian, 515000 nM; in the test with MDA-MB-435 it was more than 1000 µM; in the test on 786-0 renal it was more than 25000 nM. Also, the TGI is more than 1000 µM with U251 CNS; > 25 µM and 791 µM in the test with A498 renal; more than 1000 µM in the test on MCF7 breast; more than 1000 µM in the test with NCI-H23 lung; more than 1000 µM in the test on NCI/ADR-RES ovarian; more than 1000 µM in the test with MDA-MB-435. The compound also registered a TGI in the test on 786-0 renal of more than 562 µM.
Consider `CC[C@@H]1C(=O)N(C)c2cnc(Nc3ccc(C(=O)NC4CCC(N5CCN(CC6CC6)CC5)CC4)cc3OC)nc2N1C(C)C` (stereo partly drawn), for which the GI50 was 0.00946 µM and 0.0288 µM with K-562 leukemia; 26.3 nM and 27.6 nM in the test on U251 CNS; 890 nM and 466 nM with OVCAR-4 ovarian; 28.4 nM and 33.8 nM in the test with A498 renal; 5.07 nM and < 10 nM with MCF7 breast; 35.6 nM and 38.8 nM with UACC-62 melanoma. Also, the GI50 in the test with NCI-H23 lung is 15.8 nM and 28 nM; in the test on NCI/ADR-RES ovarian, 249 nM and 245 nM; with MDA-MB-435, less than 0.01 µM; in the test on 786-0 renal it was 61.4 nM and 72.1 nM. The TGI in the test with K-562 leukemia is > 10 µM and 1.83 µM; with U251 CNS, > 7.97 µM and 2.14 µM; with OVCAR-4 ovarian, > 10 µM and 19 µM; with A498 renal, 0.236 µM and 0.252 µM; in the test with MCF7 breast, 2.01 µM and 2.62 µM; in the test on UACC-62 melanoma, > 8.3 µM and 13.3 µM. Further, the TGI with NCI-H23 lung was > 10 µM and 2.99 µM; with NCI/ADR-RES ovarian, > 10 µM and 28.9 µM; in the test with MDA-MB-435 it was 0.0134 µM; in the test on 786-0 renal, > 3.29 µM and 1.28 µM.
Consider `N#Cc1nc2cc(Cl)c(Cl)cc2nc1-c1ccc(Cl)cc1`, for which the GI50 in the test with K-562 leukemia is more than 56.1 µM; with U251 CNS, 19300 nM; in the test with OVCAR-4 ovarian, more than 100000 nM; with A498 renal, 21500 nM; in the test with MCF7 breast, 37300 nM; with UACC-62 melanoma, 33200 nM. For the same compound, the GI50 was more than 60500 nM in the test on NCI-H23 lung, more than 42200 nM in the test with NCI/ADR-RES ovarian, more than 83.4 µM with MDA-MB-435 and 16800 nM in the test on 786-0 renal. For the same compound, the TGI is more than 100 µM in the test on K-562 leukemia; 39.3 µM in the test on U251 CNS; more than 100 µM in the test on OVCAR-4 ovarian; 60.7 µM in the test on A498 renal; more than 100 µM in the test on MCF7 breast; more than 70.9 µM in the test with UACC-62 melanoma. The TGI was more than 100 µM in the test with NCI-H23 lung, more than 83.4 µM in the test with NCI/ADR-RES ovarian, more than 100 µM in the test with MDA-MB-435 and 34.8 µM in the test with 786-0 renal.
